Experimental data reported in paper PMC10080691, “Enzyme-Responsive Double-Locked Photodynamic Molecular Beacon for Targeted Photodynamic Anticancer Therapy” (Journal of the American Chemical Society, 2023).

Experiments:
[1] = Stability in PBS and cathepsin B working buffer without enzymes (absorption/fluorescence spectra); format: physicochemical; details: 1 μM, PBS pH 7.4 or buffer pH 5.0 (25 mM NaOAc, 1 mM EDTA, 500 μM GSH), 0.1% Tween 80, 37 °C, 25 h
HeLa cells = assay: Intracellular ROS generation (H2DCFDA); format: cell-based, human; details: no inhibitor pretreatment, 2 μM 1 h + 6 h, light λ > 610 nm, 23 mW cm-2, 14 J cm-2
Protocol: The enzyme-responsive intracellular ROS generation of 1 was then examined in A549 and HeLa cells using 2′,7′-dichlorodihydrofluorescein diacetate (H2DCFDA) as the ROS fluorescent probe. Once H2DCFDA is internalized, it will be deacetylated by the intracellular esterase, followed by oxidation by the intracellular ROS, leading to the formation of the highly fluorescent 2′,7′-dichlorofluorescein (DCF).[79] The cells were first pretreated with SB-3CT (10 μM) and/or CA-074 Me (25 μM) or simply the neat medium for 2 h, followed by incubation with 1 (2 μM) for a further 1 h. As a negative control, the cells were simply incubated with 14 (2 μM) for 1 h. After being rinsed with PBS, the cells were incubated in the medium for a further 6 h. Finally, the cells were incubated with H2DCFDA (10 μM) for 30 min, followed by dark or light (λ > 610 nm, 23 mW cm^–2, 14 J cm^–2) treatment. […] It can be seen that for the MMP-2-positive A549 cells, the fluorescence due to DCF was in the following order: 1 without pretreatment of the cells with the two inhibitors > 1 with pretreatment of the cells with either one of the two inhibitors > 1 with pretreatment of the cells with both inhibitors ≈ 14. […] This trend, which reflects the extent of recovery of ROS generation, was in accord with that of the fluorescence recovery inside the cells (Figure 5c,d). For the MMP-2-negative HeLa cells, the intracellular fluorescence remained very weak even for 1 without pretreatment of the cells with the two inhibitors because of the intrinsically low MMP levels in the cells. […]
or ER-Tracker Green (Thermo Fisher Scientific Inc., E34251) (1 μM for 15 min) in a serum-free medium at 37 °C. […] All the trackers were excited at 488 nm and their fluorescence was monitored at 500−570 nm, while the DSBDP moiety was excited at 638 nm and its fluorescence was monitored at 650−750nm. The images were digitized and analyzed using a Leica Application Suite X software. […]
at 500−550 nm. The images were digitized and analyzed using a Leica Application Suite X […]

[2] = system: A549 tumor-bearing nude mice; assay: In vivo fluorescence activation in tumor; parameters: species or system Balb/c nude mice; details: 6 h post-injection; intratumoral, 20 nmol in 20 μL water with 7.5% DMSO and 0.5% Tween 80; excitation 680 nm, emission ≥700 nm; n = 4
Protocol: The in vivo activation of 1 in terms of fluorescence emission was further investigated using A549 tumor-bearing nude mice as the animal model and the non-cleavable analogue 14 as the negative control. […] The fluorescence intensity per unit area of the tumor was also determined at different time points for both conjugates (Figure 7b). […] At 6 h post-injection, the intensity of 1 was 4.3-fold higher than that of 14, showing that the former could be activated through enzymatic cleavage of the two peptide segments by the intrinsic MMP-2 and cathepsin B in the tumor, while the latter remained largely quenched due to its non-cleavable nature. […]
taken by a microplate reader (Tecan Spark 10M) at ambient temperature. The average […]
of the other wells. The cell viability was then determined by the equation: […]
where Ai is the absorbance of the ith datum (i = 1, 2, …, n), Acontrol is the average absorbance of the control wells in which the compound was absent, and n (= 4) is the number of data points.
Female Balb/c nude mice (20–25 g) were obtained from the Laboratory Animal Services Centre at The Chinese University of Hong Kong. […] In vivo fluorescence imaging was performed before and after […]
A549 tumor-bearing nude mice were prepared as described above. The length and width of the tumor were measured using a micrometer digital caliper (SCITOP Systems). […]

## CCN(CC)c1ccc2nc3ccc(/N=N/c4ccc(N(C)CCCNC(=O)OC[C@@H]5[C@@H]6CCc7nnn(CC(=O)NCCCC[C@@H]8NC(=O)CNC(=O)[C@H](CCCCN)NC(=O)[C@H](CCCNC(=N)N)NC(=O)[C@H](C(C)C)NC(=O)CNC(=O)[C@H](CC(C)C)NC(=O)[C@@H]9CCCN9C(=O)[C@H](CCCCN)NC(=O)[C@@H](N)CSCc9cc(COc%10ccc(C%11=C%12C(C)=C(I)C(/C=C/c%13ccc(OCCOCCOCCOC)cc%13)=[N+]%12[B-](F)(F)n%12c(/C=C/c%13ccc(OCCOCCOCCOC)cc%13)c(I)c(C)c%12%11)cc%10)cc(c9)CSC[C@@H](C(N)=O)NC(=O)[C@H](CCCCN)NC(=O)[C@H](CCCCN)NC(=O)CNC(=O)[C@H](CC(C)C)NC(=O)[C@H](Cc9ccccc9)NC(=O)CNC(=O)[C@H](CCCCN)NC(=O)CNC8=O)c7CC[C@@H]65)cc4)cc3[n+](-c3ccccc3)c2c1 [compound 1]
[1]
  stability in the absence of enzymes: stable
HeLa cells
  intracellular ROS generation (DCF fluorescence): very weak
[2]
  tumoral fluorescence intensity relative to that of 14: 4.3 fold
